Assay results reported in the NIST ThermoML archive (doi:10.1016/j.jct.2013.04.021).
± gives the expanded uncertainty stated by the source.

Assay: xn = mol fraction of the nth substance listed
Details: 101 kPa, Liquid; for mass density: Vibrating tube method; for speed of sound: fixed-path interferometer; for viscosity: Capillary tube (Ostwald / Ubbelohde) method

CCCCOCCO [2-butoxyethan-1-ol] + CCCCCCO
Details | mass density, 303.15 K [kg/m3] | mass density, 308.15 K [kg/m3] | mass density, 313.15 K [kg/m3] | speed of sound, 303.15 K [m/s] | speed of sound, 308.15 K [m/s] | speed of sound, 313.15 K [m/s] | viscosity, 308.15 K [mPa·s]
x1 = 0.0535 | – | 812.694 ± 0.24 | 809.018 ± 0.24 | 1286.3 ± 1.5 | 1269.6 ± 1.5 | 1253 ± 1.5 | 3.243 ± 0.071
x1 = 0.1046 | – | 816.794 ± 0.24 | 813.092 ± 0.24 | 1285.8 ± 1.5 | 1269.2 ± 1.5 | 1252.7 ± 1.5 | 3.12 ± 0.068
x1 = 0.1546 | – | 820.816 ± 0.24 | 817.077 ± 0.24 | 1285.5 ± 1.5 | 1268.8 ± 1.5 | 1252.4 ± 1.5 | 3.006 ± 0.066
x1 = 0.2054 | – | 824.902 ± 0.24 | 821.127 ± 0.24 | 1285.2 ± 1.5 | 1268.6 ± 1.5 | 1252.2 ± 1.5 | 2.896 ± 0.064
x1 = 0.253 | – | 828.737 ± 0.24 | 824.921 ± 0.24 | 1284.9 ± 1.5 | 1268.3 ± 1.5 | 1252 ± 1.5 | 2.807 ± 0.062
x1 = 0.2999 | – | 832.499 ± 0.24 | 828.653 ± 0.24 | 1284.8 ± 1.5 | 1268.2 ± 1.5 | 1251.9 ± 1.5 | 2.736 ± 0.06
x1 = 0.4044 | – | 840.855 ± 0.24 | 836.942 ± 0.24 | 1284.7 ± 1.5 | 1268.1 ± 1.5 | 1251.8 ± 1.5 | 2.597 ± 0.056
x1 = 0.5039 | 852.713 ± 0.24 | 848.772 ± 0.24 | 844.805 ± 0.24 | 1284.8 ± 1.5 | 1268.2 ± 1.5 | 1251.9 ± 1.5 | 2.499 ± 0.054
x1 = 0.5932 | 859.852 ± 0.24 | 855.859 ± 0.24 | 851.852 ± 0.24 | 1285.2 ± 1.5 | 1268.6 ± 1.5 | 1252.2 ± 1.5 | 2.43 ± 0.053
x1 = 0.7003 | 868.399 ± 0.24 | 864.345 ± 0.24 | 860.279 ± 0.24 | 1285.9 ± 1.5 | 1269.2 ± 1.5 | 1252.7 ± 1.5 | 2.367 ± 0.051
x1 = 0.8019 | 876.485 ± 0.24 | 872.393 ± 0.24 | 868.245 ± 0.24 | 1286.8 ± 1.5 | 1270.1 ± 1.5 | 1253.4 ± 1.5 | 2.311 ± 0.05
x1 = 0.8545 | 880.662 ± 0.24 | 876.541 ± 0.24 | 872.354 ± 0.24 | 1287.4 ± 1.5 | 1270.6 ± 1.5 | 1253.9 ± 1.5 | 2.284 ± 0.05
x1 = 0.8987 | 884.162 ± 0.24 | 880.024 ± 0.24 | 875.803 ± 0.24 | 1288 ± 1.5 | 1271.1 ± 1.5 | 1254.3 ± 1.5 | 2.275 ± 0.05
x1 = 0.9522 | 888.376 ± 0.24 | 884.199 ± 0.24 | 879.956 ± 0.24 | 1288.7 ± 1.5 | 1271.8 ± 1.5 | 1254.9 ± 1.5 | 2.242 ± 0.05
